Structures are written as SMILES. Some results are limits rather than exact numbers.

Our source for the IC50 values is patent publication US8445510B2, “Fused bicyclic kinase inhibitors” (OSI Pharmaceuticals, LLC, priority 2011, dated 2013).

The target in one test is T1, RON (Homo sapiens, UniProt Q04912).
T1 sequence (Q04912 913-1400): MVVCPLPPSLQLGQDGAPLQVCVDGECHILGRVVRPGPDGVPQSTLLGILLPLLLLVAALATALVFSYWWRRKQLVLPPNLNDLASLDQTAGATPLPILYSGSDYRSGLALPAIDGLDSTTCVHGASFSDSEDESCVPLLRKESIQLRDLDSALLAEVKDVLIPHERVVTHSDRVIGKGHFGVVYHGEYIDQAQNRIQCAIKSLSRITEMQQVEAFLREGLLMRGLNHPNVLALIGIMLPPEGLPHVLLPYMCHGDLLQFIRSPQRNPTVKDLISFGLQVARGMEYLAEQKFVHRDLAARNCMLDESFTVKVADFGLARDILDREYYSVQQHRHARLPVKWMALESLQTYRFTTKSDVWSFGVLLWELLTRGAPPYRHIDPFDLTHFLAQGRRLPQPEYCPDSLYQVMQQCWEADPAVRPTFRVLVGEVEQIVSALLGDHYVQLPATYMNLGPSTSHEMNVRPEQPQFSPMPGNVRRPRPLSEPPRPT
The test is described as follows: sfRON cell mechanistic assay (HeLa), phosphorylated RON ELISA. The class given is cell-based. The settings on record: HeLa cells transfected with sfRON; inhibition of phosphorylated RON; four hours incubation; at least duplicate experiments; read-out: sfRON mech IC50. In short, it runs like this: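 HeLa cells transiently transfected with sfRON plasmid, then exposed 4 h at 37 °C to a 6-point compound series (typically 10 μM to 3 nM, 0.5% DMSO). Phospho-RON (pY1238/1239) in lysates measured by sandwich ELISA with luminescence. IC50 from 4-parameter fit of percent-of-DMSO-control data, at least duplicate runs.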
In general terms: ELISA stands for enzyme-linked immunosorbent assay.

The next test has as its system MKN45 cells. The test is described as follows: MKN45 cell proliferation assay (CellTiter-Glo). The class given is cell-based. The settings on record: Homo sapiens, MKN-45, 72 h; MKN45 cell line; 3 days incubation; at least duplicate experiments; read-out: Prolif. IC50. A general note: In ATP-based viability assays light output follows the ATP content of the culture.

For orientation: IC50 means the concentration that inhibits the measured activity by half. As for `Cc1c(-c2cnc3[nH]cc([C@H](C)c4c(OC(F)F)ccc(F)c4Cl)c3c2)cnn1[C@@H]1C[C@@H](O)[C@@H](O)C1` [Example 75, (1R,2S,4S)-4-[4-(3-{(1S)-1-[2-Chloro-6-(difluoromethoxy)-3-fluoro-phenyl]ethyl}-1H-pyrrolo[2,3-b]pyridin-5-yl)-5-methyl-1H-pyrazol-1-yl]cyclopentane-1,2-diol], the IC50 at RON is at most 200 nM; in the test with MKN45 cells, at most 50 nM.

Take `COc1ccc(F)c(Cl)c1[C@@H](C)c1c[nH]c2ncc(-c3cn([C@H]4CC[C@H](O)CC4)nc3OC)cc12` [Example 99, trans-4-(4-{3-[(1S)-1-(2-chloro-3-fluoro-6-methoxyphenyl)ethyl]-1H-pyrrolo[2,3-b]pyridin-5-yl}-3-methoxy-1H-pyrazol-1-yl)cyclohexanol]: the concentration for half-maximal inhibition (IC50) at RON was at most 200 nM; in the test on MKN45 cells it was at most 50 nM.

Consider `COc1ccc(F)c(Cl)c1[C@@H](C)c1c[nH]c2ncc(-c3cnn(C[C@@H](O)CO)c3C(F)(F)F)cc12` [Example 35, (2R)-3-[4-{3-[(1S)-1-(2-Chloro-3-fluoro-6-methoxyphenyl)ethyl]-1H-pyrrolo[2,3-b]pyridin-5-yl}-5-(trifluoromethyl)-1H-pyrazol-1-yl]propane-1,2-diol], for which the IC50 was above 1000 nM on RON and 50 to 200 nM with MKN45 cells.

As for `COc1ccc(F)c(Cl)c1[C@@H](C)c1c[nH]c2ncc(-c3cnn(C)c3C(N)=O)cc12` [Example 43, 4-{3-[(1S)-1-(2-Chloro-3-fluoro-6-methoxyphenyl)ethyl]-1H-pyrrolo[2,3-b]pyridin-5-yl}-1-methyl-1H-pyrazole-5-carboxamide], the IC50 at RON was above 1000 nM; with MKN45 cells it was 200 to 1000 nM.

Regarding `CCc1c(-c2cnc3[nH]cc([C@H](C)c4c(OC)ccc(F)c4Cl)c3c2)cnn1[C@H]1CC[C@H](O)CC1` [Example 48, trans-4-(4-{3-[(1S)-1-(2-Chloro-3-fluoro-6-methoxyphenyl)ethyl]-1H-pyrrolo[2,3-b]pyridin-5-yl}-5-ethyl-1H-pyrazol-1-yl)cyclohexanol], the IC50 on RON is above 1000 nM; with MKN45 cells it was at most 50 nM.

For `COc1cc(OC)c(Cl)c([C@@H](C)c2c[nH]c3ncc(-c4cnn([C@H]5CC[C@H](O)CC5)c4C)cc23)c1Cl` [Example 106, trans-4-(4-{3-[(1S)-1-(2,6-Dichloro-3,5-dimethoxyphenyl)ethyl]-1H-pyrrolo[2,3-b]pyridin-5-yl}-5-methyl-1H-pyrazol-1-yl)cyclohexanol], the IC50 was 200 to 1000 nM on RON and at most 50 nM in the test with MKN45 cells.

Consider `Cc1c(-c2cnc3[nH]cc([C@H](C)c4c(OC(F)F)ccc(F)c4Cl)c3c2)cnn1[C@H]1CC[C@H](C(N)=O)CC1` [Example 76, trans-4-[4-(3-{(1S)-1-[2-Chloro-6-(difluoromethoxy)-3-fluorophenyl]ethyl}-1H-pyrrolo[2,3-b]pyridin-5-yl)-5-methyl-1H-pyrazol-1-yl]cyclohexanecarboxamide], for which the half-inhibitory concentration (IC50) at RON was at most 200 nM; with MKN45 cells, at most 50 nM.

For `Cc1c(-c2cnc3[nH]cc([C@H](C)c4c(OC(F)F)ccc(F)c4Cl)c3c2)cnn1C1CCNCC1` [Example 96, 3-{(1S)-1-[2-Chloro-6-(difluoromethoxy)-3-fluorophenyl]ethyl}-5-[5-methyl-1-(piperidin-4-yl)-1H-pyrazol-4-yl]-1H-pyrrolo[2,3-b]pyridine], the figures for the IC50 at RON and in the test with MKN45 cells were at most 200 nM and at most 50 nM, respectively.

As for `COc1ccc(F)c(Cl)c1[C@@H](C)c1c[nH]c2ncc(-c3cnn([C@H]4CC[C@@H](N(C)C)CC4)c3C)cc12` [Example 54, cis-4-(4-{3-[(1S)-1-(2-Chloro-3-fluoro-6-methoxyphenyl)ethyl]-1H-pyrrolo[2,3-b]pyridin-5-yl}-5-methyl-1H-pyrazol-1-yl)-N,N-dimethylcyclohexanamine], the IC50 at RON is 200 to 1000 nM; with MKN45 cells, at most 50 nM.

Regarding `COc1ccc(F)c(Cl)c1[C@@H](C)c1c[nH]c2ncc(-c3cn(C)nc3CN)cc12` [Example 50, 1-(4-{3-[(1S)-1-(2-Chloro-3-fluoro-6-methoxyphenyl)ethyl]-1H-pyrrolo[2,3-b]pyridin-5-yl}-1-methyl-1H-pyrazol-3-yl)methanamine], the figures for the IC50 at RON and with MKN45 cells were above 1000 nM and 50 to 200 nM, respectively.

With `COc1ccc(F)c(Cl)c1[C@@H](C)c1c[nH]c2ncc(-c3c(C)nn(C)c3CO)cc12` [Example 45, (4-{3-[(1S)-1-(2-Chloro-3-fluoro-6-methoxyphenyl)ethyl]-1H-pyrrolo[2,3-b]pyridin-5-yl}-1,3-dimethyl-1H-pyrazol-5-yl)methanol], the IC50 at RON was above 1000 nM; in the test on MKN45 cells it was 200 to 1000 nM.

For `Cc1c(-c2cnc3[nH]cc([C@H](C)c4c(OC(F)F)ccc(F)c4Cl)c3c2)cnn1[C@H]1C[C@@H](O)C1` [Example 81, cis-3-[4-(3-{(1S)-1-[2-Chloro-6-(difluoromethoxy)-3-fluorophenyl]ethyl}-1H-pyrrolo[2,3-b]pyridin-5-yl)-5-methyl-1H-pyrazol-1-yl]cyclobutanol], the figures for the IC50 at RON and in the test with MKN45 cells were 200 to 1000 nM and at most 50 nM, respectively.

Take `COc1ccc(F)c(Cl)c1[C@@H](C)c1c[nH]c2ncc(-c3c(C)nn(C)c3C(N)=O)cc12` [Example 41, 4-{3-[(1S)-1-(2-Chloro-3-fluoro-6-methoxyphenyl)ethyl]-1H-pyrrolo[2,3-b]pyridin-5-yl}-1,3-dimethyl-1H-pyrazole-5-carboxamide]: the IC50 on RON and in the test on MKN45 cells was above 1000 nM throughout.

Consider `Cc1c(-c2cnc3[nH]cc([C@H](C)c4c(OCC(F)(F)F)ccc(F)c4Cl)c3c2)cnn1[C@H]1CC[C@H](O)CC1` [Example 105, trans-4-[4-(3-{(1S)-1-[2-Chloro-3-fluoro-6-(2,2,2-trifluoroethoxy)-phenyl]ethyl}-1H-pyrrolo[2,3-b]pyridin-5-yl)-5-methyl-1H-pyrazol-1-yl]cyclohexanol], for which the IC50 at RON was at most 200 nM; in the test on MKN45 cells, at most 50 nM.

`Cc1c(-c2cnc3[nH]cc([C@H](C)c4c(OC(F)F)ccc(F)c4Cl)c3c2)cnn1[C@H]1CC[C@H](O)CC1` [Example 74, trans-4-[4-(3-{(1S)-1-[2-Chloro-6-(difluoromethoxy)-3-fluorophenyl]ethyl}-1H-pyrrolo[2,3-b]pyridin-5-yl)-5-methyl-1H-pyrazol-1-yl]cyclohexanol]: the IC50 at RON is at most 200 nM; in the test on MKN45 cells, at most 50 nM.

As for `Cc1nn(C[C@@H](O)CO)c(C)c1-c1cnc2[nH]cc([C@H](C)c3c(Cl)ccc(F)c3Cl)c2c1` [Example 66, (2R)-3-(4-{3-[(1S)-1-(2,6-Dichloro-3-fluorophenyl)ethyl]-1H-pyrrolo[2,3-b]pyridin-5-yl}-3,5-dimethyl-1H-pyrazol-1-yl)propane-1,2-diol], the figures for the IC50 on RON and in the test with MKN45 cells were 200 to 1000 nM and at most 50 nM, respectively.

On to `COc1ccc(F)c(Cl)c1[C@@H](C)c1c[nH]c2ncc(-c3c(C)nn([C@H]4CC[C@H](O)CC4)c3C)cc12` [Example 6, trans-4-(4-{3-[(1S)-1-(2-Chloro-3-fluoro-6-methoxyphenyl)ethyl]-1H-pyrrolo[2,3-b]pyridin-5-yl}-3,5-dimethyl-1H-pyrazol-1-yl)cyclohexanol], for which the IC50 on RON was 200 to 1000 nM; with MKN45 cells, at most 50 nM.

For the compound `COc1ccc(F)c(Cl)c1[C@@H](C)c1c[nH]c2ncc(-c3cn(C)nc3C)cc12` [Example 2, 3-[(1S)-1-(2-Chloro-3-fluoro-6-methoxyphenyl)ethyl]-5-(1,3-dimethyl-1H-pyrazol-4-yl)-1H-pyrrolo[2,3-b]pyridine], the IC50 fell in the range of 200 to 1000 nM at RON and 50 to 200 nM with MKN45 cells.

On to `COc1ccc(F)c(Cl)c1[C@@H](C)c1c[nH]c2ncc(-c3cn(C)nc3C(N)=O)cc12` [Example 39, 4-{3-[(1S)-1-(2-Chloro-3-fluoro-6-methoxyphenyl)ethyl]-1H-pyrrolo[2,3-b]pyridin-5-yl}-1-methyl-1H-pyrazole-3-carboxamide], for which the results for the half-inhibitory concentration (IC50) at RON and in the test on MKN45 cells were above 1000 nM and 50 to 200 nM, respectively.

Take `Cc1c(-c2cnc3[nH]cc([C@H](C)c4c(Cl)ccc(F)c4Cl)c3c2)cnn1[C@H]1CC[C@H](O)CC1` [Example 67, trans-4-(4-{3-[(1S)-1-(2,6-Dichloro-3-fluorophenyl)ethyl]-1H-pyrrolo[2,3-b]pyridin-5-yl}-5-methyl-1H-pyrazol-1-yl)cyclohexanol]: the IC50 at RON was 200 to 1000 nM; in the test on MKN45 cells, at most 50 nM.

As for `Cc1c(-c2cnc3[nH]cc([C@H](C)c4c(OC(F)F)ccc(F)c4Cl)c3c2)cnn1C[C@H](O)CO` [Example 70, (2S)-3-[4-(3-{(1S)-1-[2-Chloro-6-(difluoromethoxy)-3-fluorophenyl]ethyl}-1H-pyrrolo[2,3-b]pyridin-5-yl)-5-methyl-1H-pyrazol-1-yl]propane-1,2-diol], the IC50 on RON was at most 200 nM; in the test with MKN45 cells it was at most 50 nM.

With `COc1ccc(F)c(Cl)c1[C@@H](C)c1c[nH]c2ncc(-c3cn(C)nc3CO)cc12` [Example 42, (4-{3-[(1S)-1-(2-Chloro-3-fluoro-6-methoxyphenyl)ethyl]-1H-pyrrolo[2,3-b]pyridin-5-yl}-1-methyl-1H-pyrazol-3-yl)methanol], the figures for the 50% inhibitory concentration (IC50) at RON and in the test on MKN45 cells were above 1000 nM and 50 to 200 nM, respectively.
